From ChEMBL document CHEMBL4020788, “Synthesis, SAR and molecular docking studies of benzo[d]thiazole-hydrazones as potential antibacterial and antifungal agents” (2017)
Activity calls are given as the source filed them. The calls are words filed in the database; no cut-off is given here.

Assays:
Type in all cases: functional
[1] = test system: Staphylococcus aureus; assay: Antibacterial activity against Staphylococcus aureus at 25 ug/ml after 24 hrs by agar well diffusion method; details: for zone of inhibition at 25 µg/mL: read-out: DIZ
[2] = test system: Staphylococcus aureus; assay: Antibacterial activity against Staphylococcus aureus at 50 ug/ml after 24 hrs by agar well diffusion method; details: for zone of inhibition at 50 µg/mL: read-out: DIZ
[3] = test system: Staphylococcus aureus; assay: Antibacterial activity against Staphylococcus aureus at 75 ug/ml after 24 hrs by agar well diffusion method; details: for zone of inhibition at 75 µg/mL: read-out: DIZ
[4] = test system: Staphylococcus aureus; assay: Antibacterial activity against Staphylococcus aureus at 100 ug/ml after 24 hrs by agar well diffusion method; details: for zone of inhibition at 100 µg/mL: read-out: DIZ
[5] = test system: Bacillus subtilis; assay: Antibacterial activity against Bacillus subtilis at 25 ug/ml after 24 hrs by agar well diffusion method; details: for zone of inhibition at 25 µg/mL: read-out: DIZ
[6] = test system: Bacillus subtilis; assay: Antibacterial activity against Bacillus subtilis at 50 ug/ml after 24 hrs by agar well diffusion method; details: for zone of inhibition at 50 µg/mL: read-out: DIZ
[7] = test system: Bacillus subtilis; assay: Antibacterial activity against Bacillus subtilis at 75 ug/ml after 24 hrs by agar well diffusion method; details: for zone of inhibition at 75 µg/mL: read-out: DIZ
[8] = test system: Bacillus subtilis; assay: Antibacterial activity against Bacillus subtilis at 100 ug/ml after 24 hrs by agar well diffusion method; details: for zone of inhibition at 100 µg/mL: read-out: DIZ
[9] = test system: Escherichia coli; assay: Antibacterial activity against Escherichia coli at 25 ug/ml after 24 hrs by agar well diffusion method; details: for zone of inhibition at 25 µg/mL: read-out: DIZ
[10] = test system: Escherichia coli; assay: Antibacterial activity against Escherichia coli at 50 ug/ml after 24 hrs by agar well diffusion method; details: for zone of inhibition at 50 µg/mL: read-out: DIZ
[11] = test system: Escherichia coli; assay: Antibacterial activity against Escherichia coli at 75 ug/ml after 24 hrs by agar well diffusion method; details: for zone of inhibition at 75 µg/mL: read-out: DIZ
[12] = test system: Escherichia coli; assay: Antibacterial activity against Escherichia coli at 100 ug/ml after 24 hrs by agar well diffusion method; details: for zone of inhibition at 100 µg/mL: read-out: DIZ
[13] = test system: Klebsiella pneumoniae; assay: Antibacterial activity against Klebsiella pneumoniae at 25 ug/ml after 24 hrs by agar well diffusion method; details: for zone of inhibition at 25 µg/mL: read-out: DIZ
[14] = test system: Klebsiella pneumoniae; assay: Antibacterial activity against Klebsiella pneumoniae at 50 ug/ml after 24 hrs by agar well diffusion method; details: for zone of inhibition at 50 µg/mL: read-out: DIZ
[15] = test system: Klebsiella pneumoniae; assay: Antibacterial activity against Klebsiella pneumoniae at 75 ug/ml after 24 hrs by agar well diffusion method; details: for zone of inhibition at 75 µg/mL: read-out: DIZ
[16] = test system: Klebsiella pneumoniae; assay: Antibacterial activity against Klebsiella pneumoniae at 100 ug/ml after 24 hrs by agar well diffusion method; details: for zone of inhibition at 100 µg/mL: read-out: DIZ
[17] = test system: Staphylococcus aureus; assay: Antibacterial activity against methicillin resistant Staphylococcus aureus MRSA090 at 25 ug/ml after 24 hrs by agar well diffusion method; details: for zone of inhibition at 25 µg/mL: MRSA090, 24 h, read-out: DIZ
[18] = test system: Staphylococcus aureus; assay: Antibacterial activity against methicillin resistant Staphylococcus aureus MRSA090 at 50 ug/ml after 24 hrs by agar well diffusion method; details: for zone of inhibition at 50 µg/mL: MRSA090, 24 h, read-out: DIZ
[19] = test system: Staphylococcus aureus; assay: Antibacterial activity against methicillin resistant Staphylococcus aureus MRSA090 at 75 ug/ml after 24 hrs by agar well diffusion method; details: for zone of inhibition at 75 µg/mL: MRSA090, 24 h, read-out: DIZ
[20] = test system: Staphylococcus aureus; assay: Antibacterial activity against methicillin resistant Staphylococcus aureus MRSA090 at 100 ug/ml after 24 hrs by agar well diffusion method; details: for zone of inhibition at 100 µg/mL: MRSA090, 24 h, read-out: DIZ
[21] = test system: Aspergillus niger; assay: Antifungal activity against Aspergillus niger at 25 ug/ml after 48 hrs by agar well diffusion method
[22] = test system: Aspergillus niger; assay: Antifungal activity against Aspergillus niger at 50 ug/ml after 48 hrs by agar well diffusion method
[23] = test system: Aspergillus niger; assay: Antifungal activity against Aspergillus niger at 75 ug/ml after 48 hrs by agar well diffusion method
[24] = test system: Aspergillus niger; assay: Antifungal activity against Aspergillus niger at 100 ug/ml after 48 hrs by agar well diffusion method
[25] = test system: Fusarium verticillioides; assay: Antifungal activity against Fusarium moniliforme at 25 ug/ml after 48 hrs by agar well diffusion method
[26] = test system: Fusarium verticillioides; assay: Antifungal activity against Fusarium moniliforme at 50 ug/ml after 48 hrs by agar well diffusion method
[27] = test system: Fusarium verticillioides; assay: Antifungal activity against Fusarium moniliforme at 75 ug/ml after 48 hrs by agar well diffusion method; details: for zone of inhibition at 75 µg/mL: read-out: DIZ
[28] = test system: Fusarium verticillioides; assay: Antifungal activity against Fusarium moniliforme at 100 ug/ml after 48 hrs by agar well diffusion method; details: for zone of inhibition at 100 µg/mL: read-out: DIZ
[29] = test system: Fusarium oxysporum; assay: Antifungal activity against Fusarium oxysporum at 25 ug/ml after 48 hrs by agar well diffusion method
[30] = test system: Fusarium oxysporum; assay: Antifungal activity against Fusarium oxysporum at 50 ug/ml after 48 hrs by agar well diffusion method
[31] = test system: Fusarium oxysporum; assay: Antifungal activity against Fusarium oxysporum at 75 ug/ml after 48 hrs by agar well diffusion method; details: for zone of inhibition at 75 µg/mL: read-out: DIZ
[32] = test system: Fusarium oxysporum; assay: Antifungal activity against Fusarium oxysporum at 100 ug/ml after 48 hrs by agar well diffusion method; details: for zone of inhibition at 100 µg/mL: read-out: DIZ

COc1cc(/C=N/Nc2nc3cccc(C)c3s2)ccc1O
zone of inhibition at 25 µg/mL [1]: 13 mm | zone of inhibition at 50 µg/mL [2]: 17 mm | zone of inhibition at 75 µg/mL [3]: 22 mm | zone of inhibition at 100 µg/mL [4]: 26 mm | zone of inhibition at 25 µg/mL [5]: 15 mm | zone of inhibition at 50 µg/mL [6]: 19 mm | zone of inhibition at 75 µg/mL [7]: 23 mm | zone of inhibition at 100 µg/mL [8]: 28 mm | zone of inhibition at 25 µg/mL [9]: 10 mm | zone of inhibition at 50 µg/mL [10]: 15 mm | zone of inhibition at 75 µg/mL [11]: 21 mm | zone of inhibition at 100 µg/mL [12]: 27 mm | zone of inhibition at 25 µg/mL [13]: 4 mm | zone of inhibition at 50 µg/mL [14]: 10 mm | zone of inhibition at 75 µg/mL [15]: 14 mm | zone of inhibition at 100 µg/mL [16]: 16 mm | zone of inhibition at 25 µg/mL [17]: 12 mm | zone of inhibition at 50 µg/mL [18]: 16 mm | zone of inhibition at 75 µg/mL [19]: 19 mm | zone of inhibition at 100 µg/mL [20]: 24 mm | diameter of the inhibition zone (DIZ) [21]: inactive | diameter of the inhibition zone (DIZ) [22]: inactive | diameter of the inhibition zone (DIZ) [23]: inactive | diameter of the inhibition zone (DIZ) [24]: inactive | diameter of the inhibition zone (DIZ) [25]: inactive | diameter of the inhibition zone (DIZ) [26]: inactive | diameter of the inhibition zone (DIZ) [27]: inactive | diameter of the inhibition zone (DIZ) [28]: inactive | diameter of the inhibition zone (DIZ) [29]: inactive | diameter of the inhibition zone (DIZ) [30]: inactive | zone of inhibition at 75 µg/mL [31]: 8 mm | zone of inhibition at 100 µg/mL [32]: 12 mm

Cc1cccc2nc(N/N=C/c3ccc(Oc4ccccc4)cc3)sc12
diameter of the inhibition zone (DIZ) [1]: inactive | diameter of the inhibition zone (DIZ) [2]: inactive | diameter of the inhibition zone (DIZ) [3]: inactive | diameter of the inhibition zone (DIZ) [4]: inactive | diameter of the inhibition zone (DIZ) [5]: inactive | diameter of the inhibition zone (DIZ) [6]: inactive | diameter of the inhibition zone (DIZ) [7]: inactive | diameter of the inhibition zone (DIZ) [8]: inactive | diameter of the inhibition zone (DIZ) [9]: inactive | diameter of the inhibition zone (DIZ) [10]: inactive | diameter of the inhibition zone (DIZ) [11]: inactive | diameter of the inhibition zone (DIZ) [12]: inactive | zone of inhibition at 25 µg/mL [13]: 4 mm | zone of inhibition at 50 µg/mL [14]: 18 mm | zone of inhibition at 75 µg/mL [15]: 11 mm | zone of inhibition at 100 µg/mL [16]: 15 mm | diameter of the inhibition zone (DIZ) [17]: inactive | diameter of the inhibition zone (DIZ) [18]: inactive | diameter of the inhibition zone (DIZ) [19]: inactive | diameter of the inhibition zone (DIZ) [20]: inactive | diameter of the inhibition zone (DIZ) [21]: inactive | diameter of the inhibition zone (DIZ) [22]: inactive | diameter of the inhibition zone (DIZ) [23]: inactive | diameter of the inhibition zone (DIZ) [24]: inactive | diameter of the inhibition zone (DIZ) [25]: inactive | diameter of the inhibition zone (DIZ) [26]: inactive | zone of inhibition at 75 µg/mL [27]: 8 mm | zone of inhibition at 100 µg/mL [28]: 14 mm | diameter of the inhibition zone (DIZ) [29]: inactive | diameter of the inhibition zone (DIZ) [30]: inactive | zone of inhibition at 75 µg/mL [31]: 10 mm | zone of inhibition at 100 µg/mL [32]: 15 mm

COc1cc(/C=N/Nc2nc3cccc(C)c3s2)cc(Br)c1O
zone of inhibition at 25 µg/mL [1]: 8 mm | zone of inhibition at 50 µg/mL [2]: 10 mm | zone of inhibition at 75 µg/mL [3]: 13 mm | zone of inhibition at 100 µg/mL [4]: 16 mm | zone of inhibition at 25 µg/mL [5]: 5 mm | zone of inhibition at 50 µg/mL [6]: 9 mm | zone of inhibition at 75 µg/mL [7]: 13 mm | zone of inhibition at 100 µg/mL [8]: 17 mm | zone of inhibition at 25 µg/mL [9]: 11 mm | zone of inhibition at 50 µg/mL [10]: 15 mm | zone of inhibition at 75 µg/mL [11]: 19 mm | zone of inhibition at 100 µg/mL [12]: 21 mm | zone of inhibition at 25 µg/mL [13]: 9 mm | zone of inhibition at 50 µg/mL [14]: 14 mm | zone of inhibition at 75 µg/mL [15]: 17 mm | zone of inhibition at 100 µg/mL [16]: 21 mm | zone of inhibition at 25 µg/mL [17]: 7 mm | zone of inhibition at 50 µg/mL [18]: 13 mm | zone of inhibition at 75 µg/mL [19]: 19 mm | zone of inhibition at 100 µg/mL [20]: 20 mm | zone of inhibition at 25 µg/mL ([21]; read-out: DIZ): 7 mm | zone of inhibition at 50 µg/mL ([22]; read-out: DIZ): 11 mm | zone of inhibition at 75 µg/mL ([23]; read-out: DIZ): 16 mm | zone of inhibition at 100 µg/mL ([24]; read-out: DIZ): 18 mm | zone of inhibition at 25 µg/mL ([25]; read-out: DIZ): 9 mm | zone of inhibition at 50 µg/mL ([26]; read-out: DIZ): 13 mm | zone of inhibition at 75 µg/mL [27]: 17 mm | zone of inhibition at 100 µg/mL [28]: 20 mm | zone of inhibition at 25 µg/mL ([29]; read-out: DIZ): 8 mm | zone of inhibition at 50 µg/mL ([30]; read-out: DIZ): 14 mm | zone of inhibition at 75 µg/mL [31]: 17 mm | zone of inhibition at 100 µg/mL [32]: 20 mm

CCCCCC/C=N/Nc1nc2cccc(C)c2s1
diameter of the inhibition zone (DIZ) [1]: inactive | diameter of the inhibition zone (DIZ) [2]: inactive | diameter of the inhibition zone (DIZ) [3]: inactive | diameter of the inhibition zone (DIZ) [4]: inactive | diameter of the inhibition zone (DIZ) [5]: inactive | diameter of the inhibition zone (DIZ) [6]: inactive | diameter of the inhibition zone (DIZ) [7]: inactive | diameter of the inhibition zone (DIZ) [8]: inactive | diameter of the inhibition zone (DIZ) [9]: inactive | diameter of the inhibition zone (DIZ) [10]: inactive | diameter of the inhibition zone (DIZ) [11]: inactive | diameter of the inhibition zone (DIZ) [12]: inactive | diameter of the inhibition zone (DIZ) [13]: inactive | diameter of the inhibition zone (DIZ) [14]: inactive | diameter of the inhibition zone (DIZ) [15]: inactive | diameter of the inhibition zone (DIZ) [16]: inactive | diameter of the inhibition zone (DIZ) [17]: inactive | diameter of the inhibition zone (DIZ) [18]: inactive | diameter of the inhibition zone (DIZ) [19]: inactive | diameter of the inhibition zone (DIZ) [20]: inactive | diameter of the inhibition zone (DIZ) [21]: inactive | diameter of the inhibition zone (DIZ) [22]: inactive | diameter of the inhibition zone (DIZ) [23]: inactive | diameter of the inhibition zone (DIZ) [24]: inactive | diameter of the inhibition zone (DIZ) [25]: inactive | diameter of the inhibition zone (DIZ) [26]: inactive | diameter of the inhibition zone (DIZ) [27]: inactive | diameter of the inhibition zone (DIZ) [28]: inactive | diameter of the inhibition zone (DIZ) [29]: inactive | diameter of the inhibition zone (DIZ) [30]: inactive | diameter of the inhibition zone (DIZ) [31]: inactive | diameter of the inhibition zone (DIZ) [32]: inactive
